These results are taken from ChEMBL document CHEMBL1649297, “Mutations in ribosomal protein L3 are associated with oxazolidinone resistance in staphylococci of clinical origin” (2009).

Common to all, as to format: functional
For assay [1], the system named is Staphylococcus aureus. The assay can be described thus: Antibacterial activity against methicillin-susceptible Staphylococcus aureus ATCC 29213 by CLSI broth microdilution assay. In general terms: Broth dilution looks for growth in wells or tubes with falling amounts of substance.
For assay [2], the system named is Staphylococcus epidermidis. The experiment in a line: Antibacterial activity against Staphylococcus epidermidis 1653059 harboring rplC G469A/C470G, L3 Ala157Arg and 23S rRNA G2447T mutant by CLSI broth microdilution assay.
The subject of assay [3] is Staphylococcus epidermidis. The experiment in a line: Antibacterial activity against […] Staphylococcus epidermidis ATCC 12228 by CLSI broth microdilution assay.
Assay [4] relates to Staphylococcus aureus. The experiment in a line: Antibacterial activity against Staphylococcus aureus NARSA NRS127 harboring rplC T433 to T435 and L3 Ser145 deletion mutant by CLSI broth microdilution assay.

Usually MIC stands for the smallest concentration in the dilution series that meets the test's criterion for growth inhibition. Read a low MIC as inhibition by little substance.

SMILES strings stand for the structures. Converted amounts (≈) assume the structure as drawn.

Consider `C=C[C@]1(C)C[C@@H](OC(=O)CSCCN(CC)CC)[C@]2(C)[C@H](C)CC[C@]3(CCC(=O)[C@H]32)[C@@H](C)[C@@H]1O` [TIAMULIN], for which the MIC in the assay with Staphylococcus aureus [1] worked out at 1 µg/mL (≈ 2.03 µM); in assay [2], 8 µg/mL (≈ 16.2 µM); in assay [3] it was 0.5 µg/mL (≈ 1.01 µM); in the assay with Staphylococcus aureus [4] it was 4 µg/mL (≈ 8.1 µM).

Turning to `Cn1nnc(-c2ccc(-c3ccc(N4C[C@H](CO)OC4=O)cc3F)cn2)n1` [TEDIZOLID], the minimum inhibitory concentration (MIC) in the assay on Staphylococcus aureus [1] came to 0.5 µg/mL (≈ 1.35 µM); in assay [2], 16 µg/mL (≈ 43.2 µM); in assay [3] it was 0.25 µg/mL (≈ 0.675 µM); in the assay with Staphylococcus aureus [4], 1 µg/mL (≈ 2.7 µM).

With `O=C(N[C@H](CO)[C@H](O)c1ccc([N+](=O)[O-])cc1)C(Cl)Cl` [CHLORAMPHENICOL], the MIC was 8 µg/mL (≈ 24.8 µM) against Staphylococcus aureus [1], 2 µg/mL (≈ 6.19 µM) in assay [2], 1 µg/mL (≈ 3.09 µM) in assay [3] and 8 µg/mL (≈ 24.8 µM) against Staphylococcus aureus [4].

Turning to `CC(=O)NC[C@H]1CN(c2ccc(N3CCOCC3)c(F)c2)C(=O)O1` [LINEZOLID], the minimum inhibitory concentration (MIC) turned out to be 256 µg/mL (≈ 759 µM) in assay [2], 1 µg/mL (≈ 2.96 µM) in assay [3] and 8 µg/mL (≈ 23.7 µM) in the assay on Staphylococcus aureus [4].
